In one data set the test system is Rat hind-quarters. The data set is described as follows: Vasodilatory activity, isolated rat hind-quarters (antagonism of vasoconstriction by hyperkalaemic Tyrode solution).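 Note: four crosses equal an effect comparable to the standard drug.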 To be noted: crosses relative to standard drugs cinnarizine and flunarizine. The source says: (§1) The significance of the symbols is as follows:
In order to test the vasodilatory activity, the first trial employs the technique of the isolated rat hind-quarters (Table 2), which involves antagonizing the vasoconstrictive effect of perfusion of hyperkalaemic Tyrode solution, according to the method of F. N. Fastier and F. H. Smirk (J. Pharm. Exp. Therap. 89, […] (1947)), and then calculating for the products which show the greatest activity, the ED30, that is the dose which produces a 30% vasodilatory activity with respect to the basic vasoconstriction.

The test system of data set [1] is Rabbit cerebral territory. The data set is described as follows: Vasodilation in perfused rabbit cerebral territory (variation in perfusion pressure).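 For Vasodilatory Activity (Rabbit cerebral territory) Evaluation: four crosses equal an effect comparable to the standard drug.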 To be noted: for Vasodilatory Index: % vasodilation multiplied by duration of action; for Vasodilatory Activity (Rabbit cerebral territory) Evaluation: crosses relative to standard cinnarizine. It counts as in vivo. On the procedure: as §1
In a further trial, the vasodilatory activity is evaluated by the technique of vasodilation in perfused rabbit cerebral territory as described by P. Vaupel and H. Hutten (Arzneim. Forsch./Drug Res. 30(I), 598-602 (1980)), calculating the variation in perfusion pressure after treatment (Table 3).
Table 3 employs the same conventional signs based on crosses, with the same relative significance as in Table 2.

The nature of data set [2]: Toxicity, indicative LD50, intraperitoneal. To be noted: mouse, in vivo, ip, Swiss mice, 7 days post-administration. As for the experimental part:
Table 4 sets forth the results of the indicative LD50 for the most representative of the compounds according to the present invention.
The compounds are administered by the intraperitoneal route to Swiss mice, after which the toxic effects are observed, and the mortality rate and the LD50 7 days post-administration are calculated.

The record followed here is US4835156A, “Vasodilatory dihydrodibenzocycloheptyliden-ethyl piperazine derivatives and process for the preparation of these compounds” (Sociedad Espanola De Especialidades Terepeuticas, S.A., priority 1983, dated 1989).

For `Fc1ccc(C(c2ccc(F)cc2)N2CCN(C/C=C/c3ccccc3)CC2)cc1` [Flunarizine, reference compound], in the data set on Rat hind-quarters, the “Vasodilatory Activity (Rat hind-quarters) Evaluation” value is “++++”.
As for `C(CN1CCN(Cc2ccccc2)CC1)=C1c2ccccc2CCc2ccccc21` [WAS-4206, N-benzyl-N'-2-(10,11-dihydrodibenzo-(a,d)-cyclohept-5-yliden)-ethyl piperazine], the “Vasodilatory Activity (Rat hind-quarters) Evaluation” value in the data set on Rat hind-quarters is listed as “++++”. Moreover, in data set [1], the “Vasodilatory Index” value is listed as 285.3 mm^2 and the “Vasodilatory Activity (Rabbit cerebral territory) Evaluation” value was “++”. This compound registered an LD50 at 168 h in data set [2] of 880 mg/kg.
In the case of `C(=Cc1ccccc1)CN1CCN(CC=C2c3ccccc3CCc3ccccc32)CC1` [WAS-4207], the “Vasodilatory Activity (Rat hind-quarters) Evaluation” value in the data set with Rat hind-quarters is “++++”. Further, in data set [1], the “Vasodilatory Index” value worked out at 16.2 mm^2 and the “Vasodilatory Activity (Rabbit cerebral territory) Evaluation” value is on record as 0. This compound also had an LD50 at 168 h in data set [2] of 925 mg/kg.
`C(CN1CCN(Cc2ccncc2)CC1)=C1c2ccccc2CCc2ccccc21` [WAS-4220]: the “Vasodilatory Activity (Rat hind-quarters) Evaluation” value with Rat hind-quarters was 0. In addition, in data set [1], the “Vasodilatory Index” value is given as 1159.2 mm^2 and the “Vasodilatory Activity (Rabbit cerebral territory) Evaluation” value is “++++”. In data set [2], this compound yielded an LD50 at 168 h of 185 mg/kg.
In the case of `C(CN1CCN(Cc2ccco2)CC1)=C1c2ccccc2CCc2ccccc21` [WAS-4221], the “Vasodilatory Activity (Rat hind-quarters) Evaluation” value in the data set with Rat hind-quarters came to 0. In data set [1], the “Vasodilatory Index” value is 321.4 mm^2 and the “Vasodilatory Activity (Rabbit cerebral territory) Evaluation” value is reported as “+++”. The median lethal dose (LD50) at 168 h in data set [2] is 185 mg/kg.
For the compound `O=C(CN1CCN(CC=C2c3ccccc3CCc3ccccc32)CC1)N1CCOCC1` [WAS-4222], the “Vasodilatory Activity (Rat hind-quarters) Evaluation” value in the data set on Rat hind-quarters is “+”. Moreover, in data set [1], the “Vasodilatory Index” value is listed as 454.6 mm^2 and the “Vasodilatory Activity (Rabbit cerebral territory) Evaluation” value is reported as “++++”. Further, in data set [2], the LD50 at 168 h was found to be 185 mg/kg.
Turning to `O=C(CN1CCN(CC=C2c3ccccc3CCc3ccccc32)CC1)N1CCCCC1` [WAS-4223], the “Vasodilatory Activity (Rat hind-quarters) Evaluation” value with Rat hind-quarters is 0. Further, in data set [1], the “Vasodilatory Index” value was found to be 1133.6 mm^2 and the “Vasodilatory Activity (Rabbit cerebral territory) Evaluation” value is on record as “++++”. In addition, in data set [2], the LD50 at 168 h is 185 mg/kg.
Consider `O=C(CN1CCN(CC=C2c3ccccc3CCc3ccccc32)CC1)N1CCCC1` [WAS-4224], for which, in the data set with Rat hind-quarters, the “Vasodilatory Activity (Rat hind-quarters) Evaluation” value worked out at 0. Also, in data set [1], the “Vasodilatory Index” value turned out to be 342.0 mm^2 and the “Vasodilatory Activity (Rabbit cerebral territory) Evaluation” value is “+++”. The compound further gave an LD50 at 168 h in data set [2] of 385 mg/kg.
For the compound `C=CCN1CCN(CC=C2c3ccccc3CCc3ccccc32)CC1` [WAS-4225], the “Vasodilatory Activity (Rat hind-quarters) Evaluation” value in the data set on Rat hind-quarters is listed as “++++”. Also, in data set [1], the “Vasodilatory Index” value is 0 mm^2 and the “Vasodilatory Activity (Rabbit cerebral territory) Evaluation” value is 0. Also, the LD50 at 168 h in data set [2] worked out at 175 mg/kg.
In the case of `C(CN1CCN(Cc2cccs2)CC1)=C1c2ccccc2CCc2ccccc21` [WAS-4226, N-2-(10,11-dihydrodibenzo-(a,d)-cyclohept-5-yliden)-ethyl-N'-(2-thenyl)-piperazine], the “Vasodilatory Activity (Rat hind-quarters) Evaluation” value in the data set on Rat hind-quarters turned out to be 0. In data set [1], the “Vasodilatory Index” value was 74.0 mm^2 and the “Vasodilatory Activity (Rabbit cerebral territory) Evaluation” value amounted to 0. This compound also registered an LD50 at 168 h in data set [2] of 385 mg/kg.
In the case of `C(CN1CCN(Cc2cccnc2)CC1)=C1c2ccccc2CCc2ccccc21` [WAS-4227], the “Vasodilatory Activity (Rat hind-quarters) Evaluation” value with Rat hind-quarters is reported as “+”. In data set [1], the “Vasodilatory Index” value was 253.7 mm^2 and the “Vasodilatory Activity (Rabbit cerebral territory) Evaluation” value is “++”. The same compound returned an LD50 at 168 h in data set [2] of 175 mg/kg.
On to `OCCN1CCN(CC=C2c3ccccc3CCc3ccccc32)CC1` [WAS-4229], for which, in the data set on Rat hind-quarters, the “Vasodilatory Activity (Rat hind-quarters) Evaluation” value is on record as 0. Moreover, in data set [1], the “Vasodilatory Index” value was 55.6 mm^2 and the “Vasodilatory Activity (Rabbit cerebral territory) Evaluation” value came out at 0. Also, the LD50 at 168 h in data set [2] turned out to be 115 mg/kg.
Regarding `CCOC(=O)CN1CCN(CC=C2c3ccccc3CCc3ccccc32)CC1` [WAS-4231], in the data set with Rat hind-quarters, the “Vasodilatory Activity (Rat hind-quarters) Evaluation” value was “++”. Also, in data set [1], the “Vasodilatory Index” value turned out to be 0 mm^2 and the “Vasodilatory Activity (Rabbit cerebral territory) Evaluation” value worked out at 0. Further, in data set [2], the LD50 at 168 h amounted to 175 mg/kg.
For `C(CN1CCN(Cc2ccccn2)CC1)=C1c2ccccc2CCc2ccccc21` [WAS-4232], in the data set with Rat hind-quarters, the “Vasodilatory Activity (Rat hind-quarters) Evaluation” value was “++”. Further, in data set [1], the “Vasodilatory Index” value is on record as 46.8 mm^2 and the “Vasodilatory Activity (Rabbit cerebral territory) Evaluation” value came out at 0. The LD50 at 168 h in data set [2] was determined as 115 mg/kg.
Turning to `O=C(O)CN1CCN(CC=C2c3ccccc3CCc3ccccc32)CC1` [WAS-4233], in the data set with Rat hind-quarters, the “Vasodilatory Activity (Rat hind-quarters) Evaluation” value is given as 0. In addition, in data set [1], the “Vasodilatory Index” value is given as 0 mm^2 and the “Vasodilatory Activity (Rabbit cerebral territory) Evaluation” value stood at 0. The compound also returned an LD50 at 168 h in data set [2] of 900 mg/kg.
With `C(CN1CCN(Cc2ccc3c(c2)OCO3)CC1)=C1c2ccccc2CCc2ccccc21` [WAS-4234], in the data set with Rat hind-quarters, the “Vasodilatory Activity (Rat hind-quarters) Evaluation” value was found to be 0. Moreover, in data set [1], the “Vasodilatory Index” value worked out at 0 mm^2 and the “Vasodilatory Activity (Rabbit cerebral territory) Evaluation” value is reported as 0. Further, in data set [2], the LD50 at 168 h is 600 mg/kg.
As to `COC(=O)C=CCN1CCN(CC=C2c3ccccc3CCc3ccccc32)CC1` [WAS-4237], the “Vasodilatory Activity (Rat hind-quarters) Evaluation” value in the data set on Rat hind-quarters is reported as “++++”. For the same compound, in data set [1], the “Vasodilatory Index” value is on record as 19.6 mm^2 and the “Vasodilatory Activity (Rabbit cerebral territory) Evaluation” value amounted to 0. Moreover, the LD50 at 168 h in data set [2] came out at 3000 mg/kg.
Turning to `O=C(CN1CCN(CC=C2c3ccccc3CCc3ccccc32)CC1)NC12CC3CC(CC(C3)C1)C2` [WAS-4239], the “Vasodilatory Activity (Rat hind-quarters) Evaluation” value with Rat hind-quarters is given as “++”. Moreover, in data set [1], the “Vasodilatory Index” value worked out at 0 mm^2 and the “Vasodilatory Activity (Rabbit cerebral territory) Evaluation” value was 0. Further, the 50% lethal dose (LD50) at 168 h in data set [2] was determined as 340 mg/kg.
`O=C(CN1CCN(CC=C2c3ccccc3CCc3ccccc32)CC1)NC(=O)NCN1CCOCC1` [WAS-4601]: the “Vasodilatory Activity (Rat hind-quarters) Evaluation” value with Rat hind-quarters is listed as “++++”. Also, in data set [1], the “Vasodilatory Index” value was 180.8 mm^2 and the “Vasodilatory Activity (Rabbit cerebral territory) Evaluation” value is reported as “+”. The LD50 at 168 h in data set [2] was 125 mg/kg.
The like results for `O=C(CN1CCN(CC=C2c3ccccc3CCc3ccccc32)CC1)c1ccccc1` [WAS-4602] were, in that order, 0, 378.3 mm^2, “+++” and 200 mg/kg.
`COC(=O)c1cc(CN2CCN(CC=C3c4ccccc4CCc4ccccc43)CC2)ccc1O` [WAS-4604]: the “Vasodilatory Activity (Rat hind-quarters) Evaluation” value in the data set with Rat hind-quarters was “+”. Moreover, in data set [1], the “Vasodilatory Index” value is 20.0 mm^2 and the “Vasodilatory Activity (Rabbit cerebral territory) Evaluation” value is recorded as 0. Besides, the median lethal dose (LD50) at 168 h in data set [2] amounted to 900 mg/kg.
`O=C(C=CCN1CCN(CC=C2c3ccccc3CCc3ccccc32)CC1)c1ccccc1` [WAS-4605]: the “Vasodilatory Activity (Rat hind-quarters) Evaluation” value in the data set on Rat hind-quarters is given as “++++”. In data set [1], the “Vasodilatory Index” value was determined as 420.9 mm^2 and the “Vasodilatory Activity (Rabbit cerebral territory) Evaluation” value is “++++”. This compound also registered an LD50 at 168 h in data set [2] of 115 mg/kg.

Broadly, the LD50 is the dose at which mortality reaches 50%. Higher therefore signals a less toxic substance.
